Experimental data as given in ChEMBL document CHEMBL1201861, “Genomics of Drug Sensitity in Cancer screening data, Wellcome Trust Sanger Institute”.
Several values for one entry are separate records, joined by “and”; a condition that tells them apart may be missing. Identical values can stand only once. Where a SMILES comes first, the peptide text is derived from it. The star is where a group is joined. Cbz = O=C(OCc1ccccc1)*

Legend:
COR-L279 = experiment: SANGER: Inhibition of human COR-L279 cell growth in a cell viability assay.; format: functional, cell-based
CP66-MEL = experiment: cells; format: functional, cell-based; conditions: Homo sapiens;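 further: growth inhibition of CP66-MEL cells determined in a cell viability assay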
Description: SANGER: Inhibition of human CP66-MEL cell growth in a cell viability assay.

D-336MG = experiment: cells; format: functional, cell-based, Homo sapiens
Description: SANGER: Inhibition of human D-336MG cell growth in a cell viability assay.

EHEB = experiment: cells; format: functional, cell-based; conditions: Homo sapiens;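 further: growth inhibition of human EHEB cells, read out with a cell viability assay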
Description: SANGER: Inhibition of human EHEB cell growth in a cell viability assay.

IST-SL2 = experiment: cells; format: functional, cell-based, Homo sapiens;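 further: growth inhibition of human IST-SL2 cells, read out by a cell viability assay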
Description: SANGER: Inhibition of human IST-SL2 cell growth in a cell viability assay.

MC-CAR = experiment: cells; format: functional, cell-based, Homo sapiens;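 further: growth inhibition of the human MC-CAR cell line, read out by a cell viability assay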
Description: SANGER: Inhibition of human MC-CAR cell growth in a cell viability assay.

MHH-CALL-2 = experiment: cells; format: functional, cell-based, Homo sapiens;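 further: growth inhibition of the cell line, read out in a cell viability assay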
Description: SANGER: Inhibition of human MHH-CALL-2 cell growth in a cell viability assay.

MRK-nu-1 = experiment: cells; format: functional, cell-based, Homo sapiens;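 further: cell viability assay measuring growth suppression of human MRK-nu-1 cells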
Description: SANGER: Inhibition of human MRK-nu-1 cell growth in a cell viability assay.

NB1 = experiment: cells; format: functional, cell-based, Homo sapiens
Description: SANGER: Inhibition of human NB1 cell growth in a cell viability assay.

NB17 = experiment: cells; format: functional, cell-based, Homo sapiens;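 further: growth inhibition of NB17 cells, read out with a cell viability assay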
Description: SANGER: Inhibition of human NB17 cell growth in a cell viability assay.

NCCIT = experiment: SANGER: Inhibition of human NCCIT cell growth in a cell viability assay.; format: functional, cell-based
NCI-H1694 = experiment: cells; format: functional, cell-based, Homo sapiens;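 further: cell viability assay measuring inhibition of growth in human NCI-H1694 cells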
Description: SANGER: Inhibition of human NCI-H1694 cell growth in a cell viability assay.

NCI-H510A = experiment: cells; format: functional, cell-based, Homo sapiens;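 further: growth inhibition of NCI-H510A cells, read out with a cell viability assay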
Description: SANGER: Inhibition of human NCI-H510A cell growth in a cell viability assay.

NCI-H719 = experiment: cells; format: functional, cell-based, Homo sapiens;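 further: growth inhibition of the cultured cell line, read out with a viability assay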
Description: SANGER: Inhibition of human NCI-H719 cell growth in a cell viability assay.

RPMI-6666 = experiment: cells; format: functional, cell-based, Homo sapiens
Description: SANGER: Inhibition of human RPMI-6666 cell growth in a cell viability assay.

SIMA = experiment: cells; format: functional, cell-based, Homo sapiens;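 further: growth inhibition of SIMA cells, measured with a cell viability readout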
Description: SANGER: Inhibition of human SIMA cell growth in a cell viability assay.

SR = experiment: cells; format: functional, cell-based, Homo sapiens
Description: SANGER: Inhibition of human SR cell growth in a cell viability assay.

BL-70 = experiment: SANGER: Inhibition of human BL-70 cell growth in a cell viability assay.; format: functional, cell-based
U-698-M = experiment: cells; format: functional, cell-based, Homo sapiens
Description: SANGER: Inhibition of human U-698-M cell growth in a cell viability assay.

UACC-812 = experiment: cells; format: functional, cell-based; conditions: Homo sapiens
Description: SANGER: Inhibition of human UACC-812 cell growth in a cell viability assay.

CHP-126 = experiment: cells; format: functional, cell-based, Homo sapiens
Description: SANGER: Inhibition of human CHP-126 cell growth in a cell viability assay.

D-542MG = experiment: cells; format: functional, cell-based; conditions: Homo sapiens
Description: SANGER: Inhibition of human D-542MG cell growth in a cell viability assay.

DU-145 = experiment: cells; format: functional, cell-based; conditions: Homo sapiens
Description: SANGER: Inhibition of human DU-145 cell growth in a cell viability assay.

GP5d = experiment: cells; format: functional, cell-based; conditions: Homo sapiens;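 further: growth inhibition of human GP5d cells, read out with a cell viability assay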
Description: SANGER: Inhibition of human GP5d cell growth in a cell viability assay.

HCT-15 = experiment: cells; format: functional, cell-based; conditions: Homo sapiens;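 further: cell viability readout, IC50 reflecting suppression of HCT-15 cell growth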
Description: SANGER: Inhibition of human HCT-15 cell growth in a cell viability assay.

NCI-H596 = experiment: cells; format: functional, cell-based; conditions: Homo sapiens;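 further: growth inhibition of NCI-H596 cells, read out with a cell viability assay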
Description: SANGER: Inhibition of human NCI-H596 cell growth in a cell viability assay.

NCI-H630 = experiment: cells; format: functional, cell-based; conditions: Homo sapiens;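 further: growth inhibition of NCI-H630 cells, read out with a cell viability assay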
Description: SANGER: Inhibition of human NCI-H630 cell growth in a cell viability assay.

PANC-03-27 = experiment: cells; format: functional, cell-based; conditions: Homo sapiens
Description: SANGER: Inhibition of human PANC-03-27 cell growth in a cell viability assay.

SCC-4 = experiment: cells; format: functional, cell-based; conditions: Homo sapiens;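 further: growth inhibition of human SCC-4 cells, read out as cell viability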
Description: SANGER: Inhibition of human SCC-4 cell growth in a cell viability assay.

BEN = experiment: cells; format: functional, cell-based; conditions: Homo sapiens;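 further: growth inhibition of the BEN cell line, read out with a cell viability assay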
Description: SANGER: Inhibition of human BEN cell growth in a cell viability assay.

COLO-741 = experiment: cells; format: functional, cell-based; conditions: Homo sapiens
Description: SANGER: Inhibition of human COLO-741 cell growth in a cell viability assay.

GMS-10 = experiment: cells; format: functional, cell-based; conditions: Homo sapiens;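 further: growth inhibition of GMS-10 cells, read out as cell viability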
Description: SANGER: Inhibition of human GMS-10 cell growth in a cell viability assay.

HuO9 = experiment: cells; format: functional, cell-based; conditions: Homo sapiens;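 further: growth inhibition of HuO9 cells, read out with a cell viability assay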
Description: SANGER: Inhibition of human HuO9 cell growth in a cell viability assay.

IGR-1 = experiment: cells; format: functional, cell-based; conditions: Homo sapiens;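 further: growth inhibition of human IGR-1 cells, read out with a cell viability assay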
Description: SANGER: Inhibition of human IGR-1 cell growth in a cell viability assay.

KYSE-410 = experiment: cells; format: functional, cell-based; conditions: Homo sapiens;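 further: growth inhibition of KYSE-410 cells, measured through a cell viability readout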
Description: SANGER: Inhibition of human KYSE-410 cell growth in a cell viability assay.

MDA-MB-157 = experiment: cells; format: functional, cell-based; conditions: Homo sapiens
Description: SANGER: Inhibition of human MDA-MB-157 cell growth in a cell viability assay.

MFE-280 = experiment: cells; format: functional, cell-based; conditions: Homo sapiens;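 further: growth inhibition of MFE-280 cells, determined with a cell viability readout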
Description: SANGER: Inhibition of human MFE-280 cell growth in a cell viability assay.

NCI-H2347 = experiment: cells; format: functional, cell-based; conditions: Homo sapiens;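 further: growth inhibition of the cell line, read out with a cell viability assay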
Description: SANGER: Inhibition of human NCI-H2347 cell growth in a cell viability assay.

NCI-H441 = experiment: cells; format: functional, cell-based; conditions: Homo sapiens;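 further: growth inhibition of NCI-H441 cells, read out with a cell viability assay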
Description: SANGER: Inhibition of human NCI-H441 cell growth in a cell viability assay.

NCI-H520 = experiment: cells; format: functional, cell-based; conditions: Homo sapiens;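 further: growth inhibition of NCI-H520 cells, measured by a cell viability assay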
Description: SANGER: Inhibition of human NCI-H520 cell growth in a cell viability assay.

OE19 = experiment: cells; format: functional, cell-based; conditions: Homo sapiens;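 further: growth inhibition of OE19 cells, measured through a cell viability read-out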
Description: SANGER: Inhibition of human OE19 cell growth in a cell viability assay.

OVCAR-3 = experiment: cells; format: functional, cell-based; conditions: Homo sapiens;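 further: growth inhibition of human OVCAR-3 cells, determined by a cell viability assay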
Description: SANGER: Inhibition of human OVCAR-3 cell growth in a cell viability assay.

PA-1 = experiment: cells; format: functional, cell-based; conditions: Homo sapiens;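 further: IC50 for suppression of PA-1 cell proliferation, determined with a cell viability read-out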
Description: SANGER: Inhibition of human PA-1 cell growth in a cell viability assay.

RCM-1 = experiment: cells; format: functional, cell-based; conditions: Homo sapiens;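 further: growth inhibition of the RCM-1 line, determined with a cell viability readout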
Description: SANGER: Inhibition of human RCM-1 cell growth in a cell viability assay.

RT-112 = experiment: cells; format: functional, cell-based; conditions: Homo sapiens
Description: SANGER: Inhibition of human RT-112 cell growth in a cell viability assay.

SK-MES-1 = experiment: cells; format: functional, cell-based; conditions: Homo sapiens;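 further: growth inhibition of human SK-MES-1 cells, read out with a cell viability assay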
Description: SANGER: Inhibition of human SK-MES-1 cell growth in a cell viability assay.

SK-OV-3 = experiment: cells; format: functional, cell-based; conditions: Homo sapiens;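 further: growth inhibition of SK-OV-3 human cells, read out with a cell viability assay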
Description: SANGER: Inhibition of human SK-OV-3 cell growth in a cell viability assay.

SNU-449 = experiment: cells; format: functional, cell-based; conditions: Homo sapiens
Description: SANGER: Inhibition of human SNU-449 cell growth in a cell viability assay.

SW1573 = experiment: cells; format: functional, cell-based; conditions: Homo sapiens;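 further: growth inhibition of SW1573 cells, read out with a cell viability assay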
Description: SANGER: Inhibition of human SW1573 cell growth in a cell viability assay.

SW1710 = experiment: cells; format: functional, cell-based; conditions: Homo sapiens;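 further: growth inhibition of SW1710 cells, determined with a cell viability assay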
Description: SANGER: Inhibition of human SW1710 cell growth in a cell viability assay.

A2058 = experiment: cells; format: functional, cell-based; conditions: Homo sapiens;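 further: reduction of A2058 cell growth, read out with a viability assay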
Description: SANGER: Inhibition of human A2058 cell growth in a cell viability assay.

BHT-101 = experiment: cells; format: functional, cell-based; conditions: Homo sapiens
Description: SANGER: Inhibition of human BHT-101 cell growth in a cell viability assay.

C32 = experiment: cells; format: functional, cell-based; conditions: Homo sapiens;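 further: cell viability assay, with IC50 reflecting inhibition of C32 cell growth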
Description: SANGER: Inhibition of human C32 cell growth in a cell viability assay.

CAL-39 = experiment: cells; format: functional, cell-based; conditions: Homo sapiens;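 further: cell viability assay measuring growth inhibition of CAL-39 cells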
Description: SANGER: Inhibition of human CAL-39 cell growth in a cell viability assay.

CAL-51 = experiment: cells; format: functional, cell-based; conditions: Homo sapiens;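 further: human CAL-51 cell line, growth inhibition read out via a cell viability assay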
Description: SANGER: Inhibition of human CAL-51 cell growth in a cell viability assay.

UO-31 = experiment: cells; format: functional, cell-based; conditions: Homo sapiens
Description: SANGER: Inhibition of human U031 cell growth in a cell viability assay.

YKG-1 = experiment: cells; format: functional, cell-based; conditions: Homo sapiens;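 further: cell growth inhibition, read out with a viability assay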
Description: SANGER: Inhibition of human YKG-1 cell growth in a cell viability assay.

CHL-1 = experiment: cells; format: functional, cell-based; conditions: Homo sapiens;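 further: cell growth inhibition, read out with a cell viability assay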
Description: SANGER: Inhibition of human CHL-1 cell growth in a cell viability assay.

COLO-679 = experiment: cells; format: functional, cell-based; conditions: Homo sapiens
Description: SANGER: Inhibition of human COLO-679 cell growth in a cell viability assay.

`Cc1ccc(NC(=O)c2ccc(CN3CCN(C)CC3)cc2)cc1Nc1nccc(-c2cccnc2)n1` [IMATINIB] was tested, and the IC50 (COR-L279; Homo sapiens, COR-L279) was over 2 µM, the IC50 (CP66-MEL) was over 2 µM and the IC50 (D-336MG; Homo sapiens, D-336MG) was over 2 µM. It also gave an IC50 (EHEB) of over 2 µM, an IC50 (IST-SL2; Homo sapiens, IST-SL2) of over 2 µM and an IC50 (MC-CAR; Homo sapiens, MC-CAR) of over 2 µM. It also gave an IC50 (MHH-CALL-2; Homo sapiens, MHH-CALL-2) of over 2 µM, an IC50 (MRK-nu-1; Homo sapiens, MRK-nu-1) of over 2 µM and an IC50 (NB1; Homo sapiens, NB1) of over 2 µM. For the same compound, the IC50 (NB17; Homo sapiens, NB17) was over 2 µM, the IC50 (NCCIT; Homo sapiens, NCCIT) was over 2 µM and the IC50 (NCI-H1694; Homo sapiens, NCI-H1694) was over 2 µM. It also gave an IC50 (NCI-H510A; Homo sapiens, NCI-H510A) of over 2 µM, an IC50 (NCI-H719; Homo sapiens, NCI-H719) of over 2 µM and an IC50 (RPMI-6666; Homo sapiens, RPMI-6666) of over 2 µM. The IC50 (SIMA; Homo sapiens, SIMA) was over 2 µM, the IC50 (SR; Homo sapiens, SR) was over 2 µM and the IC50 (BL-70; Homo sapiens, BL-70) was over 2 µM. For the same compound, the IC50 (U-698-M; Homo sapiens, U-698-M) was over 2 µM, the IC50 (UACC-812) was over 2 µM and the IC50 (CHP-126; Homo sapiens, CHP-126) was over 2 µM.

With `CC(C)C[C@@H](C=O)NC(=O)[C@H](CC(C)C)NC(=O)[C@H](CC(C)C)NC(=O)OCc1ccccc1` [MG-132] (Cbz-Leu-Leu-Leu-aldehyde) the IC50 (COR-L279; cor-l279) was over 1 µM, the IC50 (D-336MG; d-336mg) was over 1 µM and the IC50 (D-542MG) was 0.0596 µM. It also gave an IC50 (EHEB) of over 1 µM, an IC50 (IST-SL2; ist-sl2) of over 1 µM and an IC50 (MC-CAR; mc-car) of over 1 µM. The IC50 (MHH-CALL-2; mhh-call-2) was over 1 µM, the IC50 (MRK-nu-1; mrk-nu-1) was over 1 µM and the IC50 (NB1; nb1) was over 1 µM. For the same compound, the IC50 (NB17; nb17) was 0.43 µM and > 1 µM, the IC50 (NCCIT; nccit) was 0.318 µM and > 1 µM and the IC50 (NCI-H1694; Homo sapiens, NCI-H1694) was over 1 µM. It also gave an IC50 (NCI-H1694; nci-h1694) of over 1 µM, an IC50 (NCI-H510A; Homo sapiens, NCI-H510A) of over 1 µM and an IC50 (NCI-H510A; nci-h510a) of over 1 µM. It also gave an IC50 (NCI-H719; nci-h719) of over 1 µM, an IC50 (RPMI-6666; rpmi-6666) of over 1 µM and an IC50 (SIMA; sima) of over 1 µM. The IC50 (SR; sr) was over 1 µM, the IC50 (BL-70; bl-70) was 0.694 µM and > 1 µM and the IC50 (U-698-M; u-698-m) was over 1 µM. It also gave an IC50 (UACC-812) of over 1 µM and an IC50 (CHP-126; chp-126) of over 1 µM.

With `CO[C@@H]1[C@H](N(C)C(=O)c2ccccc2)C[C@H]2O[C@]1(C)n1c3ccccc3c3c4c(c5c6ccccc6n2c5c31)C(=O)NC4` [MIDOSTAURIN] the IC50 (COR-L279; Homo sapiens, COR-L279) was over 0.512 µM, the IC50 (DU-145) was 0.319 µM and the IC50 (GP5d) was over 0.512 µM. It also gave an IC50 (HCT-15) of 0.334 µM, an IC50 (NCCIT; Homo sapiens, NCCIT) of over 0.512 µM and an IC50 (NCI-H596) of over 0.512 µM. The IC50 (NCI-H630) was over 0.512 µM, the IC50 (PANC-03-27) was 0.16 µM and the IC50 (SCC-4) was 0.24 µM. For the same compound, the IC50 (BEN) was over 0.512 µM and the IC50 (BL-70; Homo sapiens, BL-70) was over 0.512 µM.

`CC1(C)CCC(c2ccc(Cl)cc2)=C(CN2CCN(c3ccc(C(=O)NS(=O)(=O)c4ccc(N[C@H](CCN5CCOCC5)CSc5ccccc5)c(S(=O)(=O)C(F)(F)F)c4)cc3)CC2)C1` [NAVITOCLAX] was tested, and the IC50 (COLO-741) was over 2 µM, the IC50 (D-336MG; Homo sapiens, D-336MG) was over 2 µM and the IC50 (DU-145) was 0.899 µM. The IC50 (GMS-10) was over 2 µM, the IC50 (GP5d) was over 2 µM and the IC50 (HuO9) was 0.267 µM. It also gave an IC50 (IGR-1) of over 2 µM, an IC50 (KYSE-410) of over 2 µM and an IC50 (MDA-MB-157) of over 2 µM. The IC50 (MFE-280) was over 2 µM, the IC50 (NB17; Homo sapiens, NB17) was 0.0712 µM and the IC50 (NCI-H2347) was over 2 µM. The IC50 (NCI-H441) was over 2 µM, the IC50 (NCI-H520) was over 2 µM and the IC50 (NCI-H596) was over 2 µM. For the same compound, the IC50 (NCI-H630) was over 2 µM, the IC50 (OE19) was over 2 µM and the IC50 (OVCAR-3) was over 2 µM. The IC50 (PA-1) was 0.956 µM, the IC50 (PANC-03-27) was over 2 µM and the IC50 (RCM-1) was over 2 µM. For the same compound, the IC50 (RT-112) was over 2 µM, the IC50 (SCC-4) was 1.6 µM and the IC50 (SK-MES-1) was over 2 µM. The IC50 (SK-OV-3) was over 2 µM, the IC50 (SNU-449) was over 2 µM and the IC50 (SW1573) was over 2 µM. The IC50 (SW1710) was over 2 µM, the IC50 (A2058) was over 2 µM and the IC50 (BEN) was 0.24 µM. It also gave an IC50 (BHT-101) of over 2 µM, an IC50 (C32) of 1.19 µM and an IC50 (CAL-39) of over 2 µM. For the same compound, the IC50 (CAL-51) was over 2 µM, the IC50 (UO-31) was over 2 µM and the IC50 (YKG-1) was over 2 µM. The IC50 (CHL-1) was over 2 µM and the IC50 (COLO-679) was over 2 µM.

`COc1cc(N2CCC(N3CCN(C)CC3)CC2)ccc1Nc1ncc(Cl)c(Nc2ccccc2S(=O)(=O)C(C)C)n1` [TAE-684] was tested, and the IC50 (COR-L279; Homo sapiens, COR-L279) was over 2 µM, the IC50 (CP66-MEL) was over 2 µM and the IC50 (D-336MG; Homo sapiens, D-336MG) was 0.662 µM. For the same compound, the IC50 (EHEB) was over 2 µM, the IC50 (IST-SL2; Homo sapiens, IST-SL2) was over 2 µM and the IC50 (MC-CAR; Homo sapiens, MC-CAR) was over 2 µM. For the same compound, the IC50 (MHH-CALL-2; Homo sapiens, MHH-CALL-2) was 0.0295 µM, the IC50 (MRK-nu-1; Homo sapiens, MRK-nu-1) was over 2 µM and the IC50 (NB1; Homo sapiens, NB1) was under 0.00781 µM. It also gave an IC50 (NB17; Homo sapiens, NB17) of 1.01 µM, an IC50 (NCCIT; Homo sapiens, NCCIT) of over 2 µM and an IC50 (NCI-H1694; Homo sapiens, NCI-H1694) of over 2 µM. It also gave an IC50 (NCI-H510A; Homo sapiens, NCI-H510A) of over 2 µM, an IC50 (NCI-H719; Homo sapiens, NCI-H719) of over 2 µM and an IC50 (RPMI-6666; Homo sapiens, RPMI-6666) of over 2 µM. The IC50 (SIMA; Homo sapiens, SIMA) was over 2 µM, the IC50 (SR; Homo sapiens, SR) was 0.00277 µM and the IC50 (BL-70; Homo sapiens, BL-70) was 0.995 µM. It also gave an IC50 (U-698-M; Homo sapiens, U-698-M) of over 2 µM, an IC50 (UACC-812) of over 2 µM and an IC50 (CHP-126; Homo sapiens, CHP-126) of 0.86 µM.
